Holding throughout (experiment): Km and Vmax determination at pH 6 (XI activity assay coupled to sorbitol dehydrogenase, Hanes plot)
What all share (type): biochemical
Common to all, as to conditions: xylose about 40-600 mM, about 35° C., lysate of S. cerevisiae CEN.PK2-1Ca expressing XI from p426PGK1

For test [1], the system named is Firmicutes xylose isomerase, clone 1753MI4_001, SEQ ID NO: 38. As for the experimental part: (§1) XI activity in cell lysates was determined using a method based on that of Kersters-Hilderson et al., 1986, Enzyme Microb. Technol. 9:145-148, in which enzymatic conversion of xylose to xylulose by the XI is coupled with the enzymatic conversion of the product (xylulose) to xylitol via the enzyme sorbitol dehydrogenase (SDH). SDH activity requires the oxidation of NADH to NAD^+. The rate of oxidation of NADH is directly proportional to the rate of SDH conversion of D-xylulose to D-xylitol and is measured by the decrease in absorbance at 340 nm One unit of enzyme activity as measured by this assay is a decrease of […] of NADH per minute under assay conditions. All reactions, solutions, plates, and spectrophotometer were equilibrated to about 35° C. prior to use. Assays were performed either on fresh lysates immediately after preparation or lysates that had been frozen at −20° C. immediately after preparation. Assays were performed using a BioTek Model: Synergy H1 Hybrid Reader spectrophotometer and 96-well plates (Corning, Model #Costar® #3598). All spectrophotometric readings were performed at 340 nm. […]
(§2) The reaction buffer used for experiments at pH 7.5 was about 100 mM Tris-HCl (pH 7.5). […] For experiments where activity was also measured at pH 6, the buffer was changed to about 100 mM sodium phosphate, pH 6. […]
(§3) Any sample dilutions were performed using the reaction buffer as diluent. […] Reactions were mixed and read immediately using kinetic assay mode for about 10 minutes. Volumetric activity (VA) units are in milli-absorbance (mA) units per minute per ml of lysate added to the reactions (mA/min/ml). […] If protein quantitation was performed, specific activities (SA) were calculated where the units for SA are (mole NADH^+/min/mg, or U/mg lysate protein). […]
(§4) The Km and Vmax at pH 6 were determined for a subset of the XI clones, expressed on p426PGK1 vector in Saccharomyces cerevisiae CEN.PK2-1Ca (ATCC: MYA1108), using the XI activity assay described in the Materials and Methods and varying the concentrations of xylose from about 40-600 mM. […]

Test [2] relates to Prevotella xylose isomerase, clone 5586MI108_002, SEQ ID NO: 96. As for the experimental part:
as §1, §2, §3, §4

The test system of test [3] is Prevotella xylose isomerase, clone 1754MI1_001, SEQ ID NO: 78. Here is the method:
as §1, §2, §3, §4

For the compound `OC1OC[C@@H](O)[C@H](O)[C@H]1O` (stereo partly drawn) [xylose, D-xylose], the figures for the Km in test [1], in test [2] and in test [3] were 28.8 mM, 33.7 mM and 35.2 mM, respectively.

Source of the values: patent US9982249B2, “Xylose isomerases and their uses” (BP Corporation North America Inc., priority 2012, dated 2018).
